In data set [1] the test system is PC-3. Put plainly: Antitumor activity against human PC-3 cells xenografted in BALB/C nude mice assessed as decrease in tumor volume at 25 to 50 mg/kg, IG administered for 25 days. The class given is functional, organism-based. The conditions noted are these: dose 25-50 mg/kg, time 25.0 day. On the technique in general: In xenograft studies the graft and the host belong to different species.

Data set [2] concerns PC-3. Briefly: Antitumor activity against human PC-3 cells xenografted in BALB/C nude mice assessed as decrease in tumor weight at 25 mg/kg, IG administered for 25 days. In kind it is functional, organism-based. The conditions noted are these: time 25.0 day.
Data set [3] in a line: Toxicity in BALB/C nude mouse xenografted with human PC-3 cells assessed as effect on body weight at 25 mg/kg, IG administered for 25 days. In kind it is organism-based. The following applies: in vivo, po, 600 h, time 25 day.
The nature of data set [4]: Toxicity in BALB/C nude mouse xenografted with human PC-3 cells assessed as indistinct prostate tube wall at 25 mg/kg, IG administered for 25 days by H&E staining based analysis. The class given is organism-based. The following applies: in vivo, po, 600 h, time 25 day.
Data set [5] in a line: Toxicity in BALB/C nude mouse xenografted with human PC-3 cells assessed as reduction in prostate gland cells at 25 mg/kg, IG administered for 25 days by H&E staining based analysis. In kind it is organism-based. The conditions noted are these: in vivo, po, 600 h, time 25 day.
Data set [6] is described as follows: Toxicity in BALB/C nude mouse xenografted with human PC-3 cells assessed as heart damage at 25 mg/kg, IG administered for 25 days by H&E staining based analysis. The class given is organism-based. The following applies: in vivo, po, 600 h, time 25 day.
The nature of data set [7]: Toxicity in BALB/C nude mouse xenografted with human PC-3 cells assessed as liver damage at 25 mg/kg, IG administered for 25 days by H&E staining based analysis. In kind it is organism-based. The following applies: in vivo, po, 600 h, time 25 day.
Data set [8] in a line: Toxicity in BALB/C nude mouse xenografted with human PC-3 cells assessed as spleen damage at 25 mg/kg, IG administered for 25 days by H&E staining based analysis. The class given is organism-based. The following applies: in vivo, po, 600 h, time 25 day.
The nature of data set [9]: Toxicity in BALB/C nude mouse xenografted with human PC-3 cells assessed as irregular fissures at 25 mg/kg, IG administered for 25 days by H&E staining based analysis. The class given is organism-based. The conditions noted are these: in vivo, po, 600 h, time 25 day.
The nature of data set [10]: Toxicity in BALB/C nude mouse xenografted with human PC-3 cells assessed as decrease in cell density at 25 mg/kg, IG administered for 25 days by H&E staining based analysis. The class given is organism-based. The conditions noted are these: in vivo, po, 600 h, time 25 day.
For data set [11], the target named is Lysine-specific histone demethylase 1A (Homo sapiens) (UniProt O60341). Put plainly: Inhibition of LSD1 (unknown origin) at 10 uM relative to control.
Data set [12] has as its target S-phase kinase-associated protein 2 (Homo sapiens) (UniProt Q13309). Briefly: Inhibition of SKP2 (unknown origin) at 10 uM relative to control.
The target of data set [13] is Ubiquitin carboxyl-terminal hydrolase 7 (Homo sapiens) (UniProt Q93009). Briefly: Inhibition of USP7 (unknown origin) at 10 uM relative to control.
Data set [14] has as its target T1, Lysine-specific demethylase 5B (Homo sapiens, UniProt Q9UGL1). Briefly: Inhibition of KDM5B (unknown origin) at 10 uM relative to control.
The target of data set [15] is Bromodomain-containing protein 4 (Homo sapiens) (UniProt O60885). Briefly: Inhibition of BRD4 (unknown origin) at 10 uM relative to control.
Data set [16] has as its target T2, Protein deacetylase HDAC6 (Homo sapiens) (UniProt Q9UBN7).
T2 sequence (whole entry): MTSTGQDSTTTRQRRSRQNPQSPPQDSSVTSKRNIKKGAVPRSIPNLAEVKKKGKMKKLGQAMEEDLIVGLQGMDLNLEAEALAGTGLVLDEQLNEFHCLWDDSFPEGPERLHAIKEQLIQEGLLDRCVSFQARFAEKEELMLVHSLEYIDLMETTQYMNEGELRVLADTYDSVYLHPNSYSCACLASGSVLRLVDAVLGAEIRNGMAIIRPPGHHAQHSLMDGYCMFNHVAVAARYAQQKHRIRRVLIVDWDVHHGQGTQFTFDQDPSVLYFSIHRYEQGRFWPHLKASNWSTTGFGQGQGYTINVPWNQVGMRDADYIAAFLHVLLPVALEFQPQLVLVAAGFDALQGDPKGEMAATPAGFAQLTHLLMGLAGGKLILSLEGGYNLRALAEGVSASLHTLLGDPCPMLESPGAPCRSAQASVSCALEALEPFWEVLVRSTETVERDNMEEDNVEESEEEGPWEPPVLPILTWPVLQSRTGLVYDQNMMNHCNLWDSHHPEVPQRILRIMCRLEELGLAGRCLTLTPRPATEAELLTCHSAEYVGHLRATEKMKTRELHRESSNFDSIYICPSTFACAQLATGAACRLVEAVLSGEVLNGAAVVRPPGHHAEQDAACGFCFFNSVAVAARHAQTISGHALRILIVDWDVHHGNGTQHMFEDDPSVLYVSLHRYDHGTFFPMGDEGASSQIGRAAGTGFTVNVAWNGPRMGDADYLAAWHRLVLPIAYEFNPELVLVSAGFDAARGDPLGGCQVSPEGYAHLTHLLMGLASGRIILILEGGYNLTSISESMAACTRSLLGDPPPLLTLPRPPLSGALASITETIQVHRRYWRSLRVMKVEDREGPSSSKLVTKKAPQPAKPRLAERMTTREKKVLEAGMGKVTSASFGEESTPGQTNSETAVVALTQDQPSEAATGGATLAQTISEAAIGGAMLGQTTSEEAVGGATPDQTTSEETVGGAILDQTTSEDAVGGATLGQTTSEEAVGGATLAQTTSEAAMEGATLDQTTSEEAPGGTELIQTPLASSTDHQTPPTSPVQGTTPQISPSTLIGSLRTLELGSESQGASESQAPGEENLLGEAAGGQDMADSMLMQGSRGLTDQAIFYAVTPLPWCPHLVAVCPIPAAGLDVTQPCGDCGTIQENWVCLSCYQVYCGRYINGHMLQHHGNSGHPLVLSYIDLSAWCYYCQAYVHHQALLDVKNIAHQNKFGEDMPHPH
Put plainly: Inhibition of HDAC6 (unknown origin) at 10 uM relative to control.

Data set [17] deals with T1, Lysine-specific demethylase 5B. Put plainly: Inhibition of KDM5B (unknown origin).
The test system of data set [18] is PC-3. Briefly: Antitumor activity against human PC-3 cells assessed as inhibition of cell proliferation incubated for 72 hrs by MTT assay. The class given is functional, cell-based. The conditions noted are these: PC-3, 72 h.
The subject of data set [19] is MCF7. Briefly: Antitumor activity against human MCF7 cells assessed as inhibition of cell proliferation incubated for 72 hrs by MTT assay. In kind it is functional, cell-based. The following applies: MCF7, 72 h. On the technique in general: Tetrazolium dyes change colour on reduction, which living cells bring about.
For data set [20], the system named is HepG2. Put plainly: Antitumor activity against human HepG2 cells assessed as inhibition of cell proliferation incubated for 72 hrs by MTT assay. The class given is functional, cell-based. The following applies: HepG2, 72 h.
Data set [21] deals with MGC-803. Briefly: Antitumor activity against human MGC-803 cells assessed as inhibition of cell proliferation incubated for 72 hrs by MTT assay. The following applies: MGC-803, 72 h. The class given is functional, cell-based.
The subject of data set [22] is LNCaP. Briefly: Antiproliferative activity against human LNCaP cells assessed as inhibition of cell proliferation incubated for 72 hrs by MTT assay. In kind it is functional, cell-based.
In data set [23] the test system is DU-145. Briefly: Antiproliferative activity against human DU-145 cells assessed as inhibition of cell proliferation incubated for 72 hrs by MTT assay. The following applies: DU-145, 72 h. The class given is functional, cell-based.
Data set [24] relates to PC-3. Briefly: Inhibition of PI3K/AKT pathway in human PC-3 cells assessed as decrease in AKT phosphorylation at Ser473 residue at 20 uM by Western blot analysis. In kind it is cell-based. Background: In western blotting, separated proteins are transferred to a membrane and probed.
The test system of data set [25] is PC-3. Briefly: Inhibition of PI3K/AKT pathway in human PC-3 cells assessed as decrease in AKT phosphorylation at Thr308 residue at 20 uM by Western blot analysis. In kind it is cell-based.
In data set [26] the test system is PC-3. Briefly: Inhibition of PI3K/AKT pathway in human PC-3 cells assessed as decrease in P110alpha level at 20 uM by Western blot analysis. The class given is cell-based.
For data set [27], the system named is PC-3. Put plainly: Inhibition of PI3K/AKT pathway in human PC-3 cells assessed as decrease in P85 level at 20 uM by Western blot analysis. In kind it is cell-based.

Activity calls are given as the source filed them. No cut-off for these calls is given here.

T1 sequence (Q9UGL1 whole entry): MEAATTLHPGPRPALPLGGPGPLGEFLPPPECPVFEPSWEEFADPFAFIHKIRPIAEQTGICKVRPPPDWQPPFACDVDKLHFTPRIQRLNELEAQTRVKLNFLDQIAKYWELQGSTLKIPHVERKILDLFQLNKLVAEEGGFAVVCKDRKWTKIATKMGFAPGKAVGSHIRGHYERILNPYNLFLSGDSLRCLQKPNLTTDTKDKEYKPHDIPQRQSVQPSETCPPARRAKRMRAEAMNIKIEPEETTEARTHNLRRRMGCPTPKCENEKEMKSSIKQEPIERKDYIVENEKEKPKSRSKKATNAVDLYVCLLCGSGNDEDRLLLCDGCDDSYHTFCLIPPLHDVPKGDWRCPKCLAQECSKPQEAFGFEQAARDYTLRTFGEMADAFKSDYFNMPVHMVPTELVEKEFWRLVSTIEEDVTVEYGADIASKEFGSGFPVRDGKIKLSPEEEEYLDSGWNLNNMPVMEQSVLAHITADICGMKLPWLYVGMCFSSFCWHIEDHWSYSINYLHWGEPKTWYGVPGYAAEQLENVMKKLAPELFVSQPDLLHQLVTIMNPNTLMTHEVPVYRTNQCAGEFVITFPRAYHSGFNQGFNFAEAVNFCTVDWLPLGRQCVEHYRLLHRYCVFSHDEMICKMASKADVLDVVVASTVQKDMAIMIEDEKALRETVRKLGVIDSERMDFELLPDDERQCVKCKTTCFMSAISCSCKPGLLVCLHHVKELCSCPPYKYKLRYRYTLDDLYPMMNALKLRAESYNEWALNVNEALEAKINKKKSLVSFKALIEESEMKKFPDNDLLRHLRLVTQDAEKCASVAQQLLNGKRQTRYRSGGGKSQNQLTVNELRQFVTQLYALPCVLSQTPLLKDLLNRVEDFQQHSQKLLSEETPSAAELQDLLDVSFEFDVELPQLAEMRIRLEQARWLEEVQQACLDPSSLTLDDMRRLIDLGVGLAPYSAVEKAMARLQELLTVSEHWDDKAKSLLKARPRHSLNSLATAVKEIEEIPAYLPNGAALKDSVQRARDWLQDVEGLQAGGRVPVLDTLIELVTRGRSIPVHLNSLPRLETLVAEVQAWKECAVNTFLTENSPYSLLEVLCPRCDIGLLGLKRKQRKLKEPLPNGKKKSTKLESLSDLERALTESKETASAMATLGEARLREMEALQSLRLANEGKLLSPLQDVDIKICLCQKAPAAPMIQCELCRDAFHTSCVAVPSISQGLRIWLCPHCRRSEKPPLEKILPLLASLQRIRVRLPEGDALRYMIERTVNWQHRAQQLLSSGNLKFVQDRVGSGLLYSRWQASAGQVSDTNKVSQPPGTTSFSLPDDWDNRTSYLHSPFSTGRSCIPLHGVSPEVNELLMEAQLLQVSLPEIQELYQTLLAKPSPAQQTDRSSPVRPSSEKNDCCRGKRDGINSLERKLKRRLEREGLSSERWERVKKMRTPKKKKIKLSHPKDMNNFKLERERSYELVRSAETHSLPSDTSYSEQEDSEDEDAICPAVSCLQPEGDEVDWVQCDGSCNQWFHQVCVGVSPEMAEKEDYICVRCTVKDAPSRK
S-phase kinase-associated protein 2 (Homo sapiens), sequence (Q13309 whole entry): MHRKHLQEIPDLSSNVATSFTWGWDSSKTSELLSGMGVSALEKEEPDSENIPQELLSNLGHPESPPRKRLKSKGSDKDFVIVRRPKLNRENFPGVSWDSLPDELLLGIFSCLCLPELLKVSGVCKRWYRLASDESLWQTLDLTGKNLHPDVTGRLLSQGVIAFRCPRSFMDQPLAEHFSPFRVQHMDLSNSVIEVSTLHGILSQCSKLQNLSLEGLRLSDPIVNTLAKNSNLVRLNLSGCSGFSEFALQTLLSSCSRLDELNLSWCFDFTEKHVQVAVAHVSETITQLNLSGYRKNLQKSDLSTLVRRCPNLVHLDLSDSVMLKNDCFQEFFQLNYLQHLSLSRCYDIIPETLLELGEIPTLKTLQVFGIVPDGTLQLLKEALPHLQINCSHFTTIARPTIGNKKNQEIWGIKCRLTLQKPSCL
Ubiquitin carboxyl-terminal hydrolase 7 (Homo sapiens), sequence (Q93009 whole entry, looked up): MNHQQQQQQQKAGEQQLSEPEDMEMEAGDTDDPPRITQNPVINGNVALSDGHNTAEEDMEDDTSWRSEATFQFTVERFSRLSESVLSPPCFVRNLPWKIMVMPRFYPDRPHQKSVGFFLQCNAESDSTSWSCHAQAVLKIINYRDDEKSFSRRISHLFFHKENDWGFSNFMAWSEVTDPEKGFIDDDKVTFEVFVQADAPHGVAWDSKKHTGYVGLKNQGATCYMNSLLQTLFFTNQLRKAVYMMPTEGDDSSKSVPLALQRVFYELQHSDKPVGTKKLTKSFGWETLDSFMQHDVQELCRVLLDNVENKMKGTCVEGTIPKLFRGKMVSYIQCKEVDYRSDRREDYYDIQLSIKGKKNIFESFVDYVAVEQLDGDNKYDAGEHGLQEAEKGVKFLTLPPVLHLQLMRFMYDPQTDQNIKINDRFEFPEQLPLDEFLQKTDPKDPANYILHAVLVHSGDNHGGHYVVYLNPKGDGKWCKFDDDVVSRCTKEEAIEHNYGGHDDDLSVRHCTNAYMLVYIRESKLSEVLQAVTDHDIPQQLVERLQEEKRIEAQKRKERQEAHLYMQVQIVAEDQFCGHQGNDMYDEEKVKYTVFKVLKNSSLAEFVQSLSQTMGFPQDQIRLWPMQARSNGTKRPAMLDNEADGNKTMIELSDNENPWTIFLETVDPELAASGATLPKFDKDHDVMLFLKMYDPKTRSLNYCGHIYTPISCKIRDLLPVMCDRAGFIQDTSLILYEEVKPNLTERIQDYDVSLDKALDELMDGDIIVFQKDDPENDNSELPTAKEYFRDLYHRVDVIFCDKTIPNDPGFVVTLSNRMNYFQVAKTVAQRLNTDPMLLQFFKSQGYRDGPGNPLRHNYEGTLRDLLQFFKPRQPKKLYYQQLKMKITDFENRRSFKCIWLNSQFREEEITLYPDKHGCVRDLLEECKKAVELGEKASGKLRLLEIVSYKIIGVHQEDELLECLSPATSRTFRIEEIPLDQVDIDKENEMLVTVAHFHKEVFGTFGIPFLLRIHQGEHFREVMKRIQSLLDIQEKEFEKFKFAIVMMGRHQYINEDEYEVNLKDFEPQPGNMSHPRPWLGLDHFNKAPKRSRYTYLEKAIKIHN

As to `COc1cccc2c1C(=O)c1c(O)c3c(c(O)c1C2=O)C[C@@](O)(C(=O)CO)C[C@@H]3O[C@H]1C[C@H](N)[C@H](O)[C@H](C)O1` [DOXORUBICIN], the result in data set [1] and in data set [2] was Active. Besides, the Activity result in [3], in data set [4], in data set [5], in data set [6], in data set [7] and in data set [8] was “Toxic” each time. Further, the Activity result in [9] and in data set [10] was “Toxic” throughout.
What is called inhibition is the drop in the measured response relative to a control, in per cent. On to `CC(C)n1ncc2c(C(=O)NCc3cn(Cc4ccccc4)nn3)cccc21`, for which the inhibition came to 31% in [11]; 11% in [12]; 16% in data set [13]; 56% in data set [14]; 9% in data set [15]; 27% in data set [16].
For orientation: IC50 means the concentration that gives 50% inhibition. On to `CC(C)c1c(-c2ccccc2)[nH]c2c(C#N)cnn2c1=O`, for which the IC50 in [17] came to 0.011 µM; in data set [18] it was 26.7 µM; in [19] it was 35.4 µM; in [20], 42.6 µM; in data set [21] it was 33.7 µM; in data set [22] it was 29.6 µM. For the same compound, the half-inhibitory concentration (IC50) in [23] was 35.9 µM. Also, the inhibition entry in data set [24], in data set [25], in data set [26] and in [27] was “Active” each time.

The record behind these values is ChEMBL document CHEMBL5346927, “Discovery of a novel 1H-pyrazole- [3,4-b] pyridine-based lysine demethylase 5B inhibitor with potential anti-prostate cancer activity that perturbs the phosphoinositide 3-kinase/AKT pathway” (Eur J Med Chem, 2023).
